Where a name gives a salt, the structure may show the parent alone.
molecular target: T1, human CRF1 receptor (Homo sapiens, UniProt P34998); assay: Measurement of CRF Binding Inhibitory Rate (receptor binding experiment with 125I-CRF); settings: human CRF1 receptor expressing CHO cellular membrane fraction, 50 pM 125I-CRF, room temperature 1.5 hr, 0.05 nM to 10 μM of compound; read-out: IC50 values (CRF binding inhibition)
T1 construct: expressed in transfected cells; host or cells: CHO cells (membrane fraction)
T1 sequence (P34998 24-415): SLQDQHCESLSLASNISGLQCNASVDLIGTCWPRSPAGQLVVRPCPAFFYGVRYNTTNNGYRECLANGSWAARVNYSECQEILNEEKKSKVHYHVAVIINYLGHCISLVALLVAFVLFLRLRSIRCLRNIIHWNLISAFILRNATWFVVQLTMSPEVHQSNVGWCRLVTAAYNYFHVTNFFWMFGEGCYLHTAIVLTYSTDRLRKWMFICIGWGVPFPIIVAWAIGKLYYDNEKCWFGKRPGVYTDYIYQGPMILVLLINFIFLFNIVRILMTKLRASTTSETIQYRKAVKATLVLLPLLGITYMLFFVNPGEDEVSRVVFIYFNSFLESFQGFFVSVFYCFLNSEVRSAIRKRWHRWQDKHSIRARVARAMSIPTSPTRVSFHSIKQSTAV
Description: Measurement of CRF Binding Inhibitory Rate
A receptor binding experiment was carried out using a human CRF1 receptor expressing CHO cellular membrane fraction and ovine CRF, [^125I]-tyr^0(^125I-CRF). 1000 nM of a test compound was incubated with 1 μg of human CREF receptor expressing CHO cellular membrane fraction and 50 pM of ^125I-CRF in a binding assay buffer (50 mM Tris-HCl, 5 mM EDTA, 10 mM MgCl2, 0.05% CHAPS, 0.1% BSA, 0.5 mM PMSF, 0.1 μg/mL pepstatin, 20 μg/mL leupeptin, pH 7.5). In addition, for measuring nonspecific binding (NSB), 0.1 μM unlabelled human Urocortin was incubated with 5 μg of human CRE receptor expressing CHO cellular membrane fraction and 50 pM of ^125I-CRF in a binding assay buffer. After a binding reaction was carried out at room temperature for 1.5 hr, the membrane was entrapped on a glass filter (UniFilter plate GF-C/Perkin Elmer) by suction filtration using a cell harvester (Perkin Elmer), and washed with ice-cooled 50 mM Tris-HCl (pH 7.5). After drying the glass filter, a liquid scintillation cocktail (Microscinti 0, Perkin Elmer) was added, and the radioactivity of ^125I-CRF remaining on a glass filter was measured using Topcount (Perkin Elmer).
(TB−SB)/(TB−NSB)×100 (SB: radioactivity when a compound is added, TB: maximum binding radioactivity, NSB: nonspecific binding radioactivity) were calculated to obtain binding inhibitory rates under the range of the presence from 0.05 nM to 10 μM of each compound. The IC50 values were calculated by using GraphPad Prism software.

Row | Compound | IC50 [nM]
1 | CCC(OC(C)=O)c1ccc(Cl)c2nc3n(c12)CCCN3c1cnc(OC)cc1C (centres unmarked) [Example 161, 1-[9-Chloro-1-(6-methoxy-4-methylpyridin-3-yl)-1,2,3,4-tetrahydropyrimido[1,2-a]benzimidazol-6-yl]propyl acetate] | < 1000
2 | CCC(CC)c1ccc(Cl)c2nc3n(c12)CCN3c1ccc(Cl)cc1C#N [Example 18, 5-Chloro-2-[8-chloro-5-(1-ethylpropyl)-2,3-dihydro-1H-imidazo[1,2-a]benzimidazol-1-yl]benzonitrile] | < 1000
3 | CCC(O)c1ccc(Cl)c2nc3n(c12)CCCN3c1c(C)cc(Cl)cc1Cl (centres unmarked) [Example 379, 1-[9-Chloro-1-(2,4-dichloro-6-methylphenyl)-1,2,3,4-tetrahydropyrimido[1,2-a]benzimidazol-6-yl]propan-1-ol] | < 1000
4 | CCOc1ccc(N2CCCn3c2nc2c(Cl)ccc(C(OC(F)F)C(F)(F)F)c23)c(C)n1 (centres unmarked) [Example 287, 9-Chloro-6-[1-(difluoromethoxy)-2,2,2-trifluoroethyl]-1-(6-ethoxy-2-methylpyridin-3-yl)-1,2,3,4-tetrahydropyrimido[1,2-a]benzimidazole] | < 1000
5 | CCN(CC)c1ccc(Cl)c2nc3n(c12)CCCCN3c1ccc(Cl)cc1Cl [Example 98, 10-Chloro-1-(2,4-dichlorophenyl)-N,N-diethyl-2,3,4,5-tetrahydro-1H-[1,3]diazepino[1,2-a]benzimidazol-7-amine] | < 1000
6 | CCC(OC(=O)C(C)(C)C)c1ccc(Cl)c2nc3n(c12)CCCN3c1ccc(Cl)cc1Cl (centres unmarked) [Example 481, 1-[9-Chloro-1-(2,4-dichlorophenyl)-1,2,3,4-tetrahydropyrimido[1,2-a]benzimidazol-6-yl]propyl 2,2-dimethylpropanoate] | < 1000
7 | CC(=O)NC(c1ccc(Cl)c2nc3n(c12)CCCN3c1c(Cl)cc(Cl)cc1Cl)C(F)(F)F (centres unmarked) [Example 415, N-{1-[9-Chloro-1-(2,4,6-trichlorophenyl)-1,2,3,4-tetrahydropyrimido[1,2-a]benzimidazol-6-yl]-2,2,2-trifluoroethyl}acetamide] | < 1000
8 | CCC(C(C)=O)c1ccc(Cl)c2nc3n(c12)CCCN3c1ccc(Cl)cc1Cl (centres unmarked) [Example 405, 3-[9-Chloro-1-(2,4-dichlorophenyl)-1,2,3,4-tetrahydropyrimido[1,2-a]benzimidazol-6-yl]pentan-2-one] | < 1000
9 | CCC(c1ccc(Cl)c2nc3n(c12)CCCN3c1ccc(OC)nc1C)C(F)F (centres unmarked) [Example 303, 9-Chloro-6-[1-(difluoromethyl)propyl]-1-(6-methoxy-2-methylpyridin-3-yl)-1,2,3,4-tetrahydropyrimido[1,2-a]benzimidazole] | < 1000
10 | CCC(CC)c1ccc(Cl)c2nc3n(c12)CCCCN3c1ccc(Br)cc1C [Example 43, 1-(4-Bromo-2-methylphenyl)-10-chloro-7-(1-ethylpropyl)-2,3,4,5-tetrahydro-1H-[1,3]diazepino[1,2-a]benzimidazole] | < 1000
11 | CC(=O)NC(c1ccc(Cl)c2nc3n(c12)CCCN3c1ccc(Cl)cc1Cl)C(F)(F)F (centres unmarked) [Example 476, N-{1-[9-chloro-1-(2,4-dichlorophenyl)-1,2,3,4-tetrahydropyrimido[1,2-a]benzimidazol-6-yl]-2,2,2-trifluoroethyl}acetamide] | < 1000
12 | Cc1nc(OC(C)C)ccc1N1CCCn2c1nc1c(Cl)ccc(C(OC(F)F)C(F)(F)F)c12 (centres unmarked) [Example 288, 9-Chloro-6-[1-(difluoromethoxy)-2,2,2-trifluoroethyl]-1-[2-methyl-6-(1-methylethoxy)pyridin-3-yl]-1,2,3,4-tetrahydropyrimido[1,2-a]benzimidazole] | < 1000
13 | NC(c1ccc(Cl)c2nc3n(c12)CCCN3c1c(Cl)cc(Cl)cc1Cl)C(F)(F)F (centres unmarked) [Example 414, 1-[9-Chloro-1-(2,4,6-trichlorophenyl)-1,2,3,4-tetrahydropyrimido[1,2-a]benzimidazol-6-yl]-2,2,2-trifluoroethanamine] | < 1000
14 | CCC(CC)c1ccc(Cl)c2nc3n(c12)CCN3c1ccc(Cl)cc1CN(C)C [Example 8, 1-{5-Chloro-2-[8-chloro-5-(1-ethylpropyl)-2,3-dihydro-1H-imidazo[1,2-a]benzimidazol-1-yl]phenyl}-N,N-dimethylmethanamine] | < 1000
15 | CCN(CC)c1cccc2nc3n(c12)CC(N=[N+]=[N-])CCN3c1ccc(Cl)cc1Cl (centres unmarked) [Example 361, 4-Azido-1-(2,4-dichlorophenyl)-N,N-diethyl-2,3,4,5-tetrahydro-1H-[1,3]diazepino[1,2-a]benzimidazol-7-amine] | < 1000
16 | CCC(C(=O)C(F)(F)F)c1ccc(Cl)c2nc3n(c12)CCCN3c1ccc(Cl)cc1Cl (centres unmarked) [Example 318] | < 1000
17 | CCC(CC)c1ccc(Cl)c2nc3n(c12)CCCCN3c1ccc(C)cc1CN(C)C [Example 35, 1-{2-[10-Chloro-7-(1-ethylpropyl)-2,3,4,5-tetrahydro-1H-[1,3]diazepino[1,2-a]benzimidazol-1-yl]-5-methylphenyl}-N,N-dimethylmethanamine hydrochloride] | < 1000
18 | CCC(NC(C)=O)c1ccc(Cl)c2nc3n(c12)CCCN3c1c(C)cc(Cl)cc1Cl (centres unmarked) [Example 377, N-{1-[9-Chloro-1-(2,4-dichloro-6-methylphenyl)-1,2,3,4-tetrahydropyrimido[1,2-a]benzimidazol-6-yl]propyl}acetamide] | < 1000
19 | CCC(=O)c1cccc2nc3n(c12)CCCCN3c1ccc(Cl)cc1Cl [Example 69, 1-[1-(2,4-Dichlorophenyl)-2,3,4,5-tetrahydro-1H-[1,3]diazepino[1,2-a]benzimidazol-7-yl]propan-1-one] | < 1000
20 | CCC(OCCOC)c1cccc2nc3n(c12)CCCN3c1ccc(Cl)cc1Cl (centres unmarked) [Example 94, 1-(2,4-Dichlorophenyl)-6-[1-(2-methoxyethoxy)propyl]-1,2,3,4-tetrahydropyrimido[1,2-a]benzimidazole] | < 1000
21 | CCO/N=C(\CC)c1ccc(Cl)c2nc3n(c12)CCCN3c1ccc(Cl)cc1Cl [Example 123, (1E)-1-[9-Chloro-1-(2,4-dichlorophenyl)-1,2,3,4-tetrahydropyrimido[1,2-a]benzimidazol-6-yl]propan-1-one O-ethyloxime] | < 1000
22 | CCC(CC)c1ccc(Cl)c2nc3n(c12)CCN3c1ccc(Cl)cc1C=O [Example 6, 5-Chloro-2-[8-chloro-5-(1-ethylpropyl)-2,3-dihydro-1H-imidazo[1,2-a]benzimidazol-1-yl]benzaldehyde] | < 1000
23 | CCC(CC)c1ccc(Cl)c2nc3n(c12)CC(=O)N3c1cnc(N(C)C)cc1C [Example 9, 8-Chloro-1-[6-(dimethylamino)-4-methylpyridin-3-yl]-5-(1-ethylpropyl)-1H-imidazo[1,2-a]benzimidazol-2(3H)-one] | < 1000
24 | CCC(CC)c1ccc(Cl)c2nc3n(c12)CC(=O)N3c1c(C)cc(Cl)cc1OC [Example 2, 8-Chloro-1-(4-chloro-2-methoxy-6-methylphenyl)-5-(1-ethylpropyl)-1H-imidazo[1,2-a]benzimidazol-2(3H)-one] | < 1000
25 | CC/C(=N\OC(F)F)c1ccc(Cl)c2nc3n(c12)CCCN3c1c(Cl)cc(Cl)cc1Cl [Example 194, (1E)-1-[9-Chloro-1-(2,4,6-trichlorophenyl)-1,2,3,4-tetrahydropyrimido[1,2-a]benzimidazol-6-yl]propan-1-one O-(difluoromethyl)oxime] | < 1000
26 | OC(c1ccc(Cl)c2nc3n(c12)CCCN3c1ccc(Cl)cc1Cl)C(F)(F)F (centres unmarked) [Example 307, 1-[9-Chloro-1-(2,4-dichlorophenyl)-1,2,3,4-tetrahydropyrimido[1,2-a]benzimidazol-6-yl]-2,2,2-trifluoroethanol] | < 1000
27 | COC(=O)c1ccc(Cl)c2nc3n(c12)CCCCN3c1ccc(OC)cc1Cl [Example 330, Methyl 10-chloro-1-(2-chloro-4-methoxyphenyl)-2,3,4,5-tetrahydro-1H-[1,3]diazepino[1,2-a]benzimidazole-7-carboxylate] | < 1000
28 | CC(C)C(O)c1ccc(Cl)c2nc3n(c12)CCCN3c1ccc(Cl)cc1Cl (centres unmarked) [Example 234, 1-[9-Chloro-1-(2,4-dichlorophenyl)-1,2,3,4-tetrahydropyrimido[1,2-a]benzimidazol-6-yl]-2-methylpropan-1-ol] | < 1000
29 | FC(F)COC(c1ccc(Cl)c2nc3n(c12)CCCN3c1ccc(Cl)cc1Cl)C1CC1 (centres unmarked) [Example 464, 9-Chloro-6-[cyclopropyl(2,2-difluoroethoxy)methyl]-1-(2,4-dichlorophenyl)-1,2,3,4-tetrahydropyrimido[1,2-a]benzimidazole] | < 1000
